Measurements published in patent US10927375B1, “Compositions and methods to reduce beta-agonist-mediated tachyphylaxis” (University of South Florida, priority 2018, dated 2021).
Entries after “also recorded” stand apart in the source; their conditions may differ.

How the values were obtained:
[1] = tested on: let-7f miRNA expression in HASM cells; test: let-7f miRNA expression in cultured HASM cells by quantitative RT-PCR; format: cell-based, human; details: for change in let-7f miRNA expression after treatment with the agent: 18 h at 37° C., asthmatic and nonasthmatic HASM cells, ISO 30 μM, forskolin 10 mM, dibutyryl-cAMP 100 mM as printed
ADRB2 mRNA = ADRB2 mRNA in D9 HASM cells by RT-PCR; details: 18 h ISO
Protocol: (§1) The immortalized HASM cell line denoted D9 hTERT was developed as described (22), and was grown in the same manner. […] In some experiments, pretreatment with 10 μM N-(2-[p-bromocinnamylamino]ethyl)-5-isoquinoline-sulfonamide (H89) occurred for 1 h prior to the aforementioned treatments.
RT-PCR was performed using a LightCycler 96 system (Roche, Basel, Switzerland) and TaqMan polymerase (Applied Biosystems, Foster City, Calif., USA) as previously described (26, 27). The RT reactions utilized Oligo d(T)16 for ADRB2 and glyceraldehyde-3 phosphate dehydrogenase (control), and the primers included with the TaqMan MicroRNA assay (Applied Biosystems) for the reaction with let-7f and U6 snRNA (control). […] Quantitation of transcripts was made by the 22DCt method (28, 29).

β2AR [2] = details: incubating cells with dibutyryl-cAMP and forskolin (ref. 37); cited from earlier work
β2AR [3] = details: stably transfected HEK 293 cells greatly overexpressing β2ARs (ref. 40); cited from earlier work
β2AR [4] = target: β2AR (Homo sapiens, UniProt P07550); test: β2AR protein expression / agonist-promoted down-regulation in HASM cells (Western blot, radioligand binding)
Protocol: as §1
HASM cells in 6-well plates were transfected using Lipofectamine 2000 (Thermo Fisher Scientific, Waltham, Mass., USA) as described in detail elsewhere (22, 23). Cells were in a final volume of 1.0 ml and the indicated constructs along with 10 ml of Lipofectamine 2000 were added to initiate the transfection. The constructs and final concentrations were: cAMP receptor element-binding protein [CREB (in pcDNA3, 4 μg/ml)], siCREB (40 nM of siGenome SmartPool; Dharmacon, Lafayette, Colo., USA), and to inhibit let-7f, a competitive inhibitor (Dharmacon) that binds to let-7f (24, 25) at a final concentration of 40 nM (24, 25). The cells were studied 48 h after transfection. […] Secondary antibody for chemoluminescence (Thermo Fisher Scientific) was at a titer of 1:10,000. ChemiDoc (Bio-Rad, Hercules, Calif., USA) was used to detect bands, which were quantitated using ImageJ (National Institutes of Health, Bethesda, Md., USA).
Radioligand binding. Confluent cells in 10 cm dishes were washed 3 times with cold PBS followed by disruption with a cell scraper in buffer consisting of 5 mM Tris and 2 mM EDTA at 4° C. (pH 7.4). Crude membranes were collected by centrifugation at 30,000 g for 15 min at 4° C., and resuspended in assay buffer consisting of 75 mM Tris, 12 mM MgCl2, and 5 mM EDTA at 25° C. (pH 7.4). […] After incubation for 1.5 h at 25° C., bound radioligands were separated from free radioligands by rapid dilution and vacuum filtration with buffer containing 15 ml of 5 mM Tris and 2 mM EDTA at 25° C. (pH 7.4) over Whatman GF/C filters (GE Healthcare Bio-Sciences, Piscataway, N.J., USA) using a Brandel cell harvester (Brandel, Gaithersberg, Md., USA). Specific binding was divided by the added cell membrane protein and β2AR expression stated as femtomoles per milligram.

Molecule: O=S(=O)(NCCNCC=Cc1ccc(Br)cc1)c1cccc2cnccc12 [H89]
- effect of H89 on ISO-promoted increase in let-7f ([1]; 10 μM H89 pretreatment 1 h, then ISO 18 h, asthmatic and non-asthmatic HASM cells): blocked; also recorded: inhibited
- effect of H89 on forskolin-promoted increase in let-7f ([1]; 10 μM H89 pretreatment 1 h, then forskolin 18 h, asthmatic and non-asthmatic HASM cells): blocked; also recorded: inhibited
- effect of H89 on dibutyryl-cAMP-promoted increase in let-7f ([1]; 10 μM H89 pretreatment, then dibutyryl-cAMP 18 h, HASM cells): blocked

Molecule: CC(C)NCC(O)c1ccc(O)c(O)c1 (centres unmarked) [ISO, isoproterenol]
- change in let-7f miRNA expression after treatment with the agent [1]: increased
- increase in let-7f miRNA expression ([1]; 18 h exposure to ISO (30 μM), both asthmatic and non-asthmatic HASM cells): ~3 fold
- change in ADRB2 mRNA due to ISO exposure (ADRB2 mRNA): not altered; also recorded: not found to be changed

Molecule: CCCC(=O)Nc1ncnc2c1ncn2[C@@H]1O[C@@H]2COP(=O)(O)O[C@H]2[C@H]1OC(=O)CCC [dibutyryl-cAMP]
- β2AR down-regulation relative to β-agonists (β2AR [2]): nearly the same extent
- degree of β2AR down-regulation compared with that of ISO (β2AR [3]): relatively small degree
- change in let-7f miRNA expression after treatment with the agent [1]: increased

B1: let-7f inhibitor: competitive inhibitor (Dharmacon) that binds to let-7f; Cat. No. IH-30048-07, SEQ ID NO: 14 (nucleic acid)
chain: UCAGAGUGAGGUAGUAGAUUGUAUAGUUGUGGGGUAGUGAUUUUACCCUGUUCAGGAGAUAACUAUACAAUCUAUUGCCUUCCCUGA
modifications: commercial inhibitor, chemistry not given here
- attenuation of agonist-promoted β2AR down-regulation (β2AR [4]; let-7f or CREB silenced, chronic agonist): about 50%
- effect on ISO-promoted β2AR down-regulation (β2AR [4]; transfection 40 nM 48 h, then ISO 18 h): attenuates; also recorded: markedly attenuated
